Positions count from the first letter of the chain named. Like-named read-outs stand apart in the source and are kept apart here.
Key:
[1] = biological target: T1, AadA wild type (Salmonella typhimurium, UniProt Q8ZPX9); experiment: ITC binding, wild-type AadA; set-up: species or system Salmonella enterica; conditions: for Kd: ITC; for binding to AadA in the absence of ATP (ITC): data not shown
T1 construct: made in house; host or cells: Escherichia coli BL21 Star
T1 sequence (Q8ZPX9 1-262): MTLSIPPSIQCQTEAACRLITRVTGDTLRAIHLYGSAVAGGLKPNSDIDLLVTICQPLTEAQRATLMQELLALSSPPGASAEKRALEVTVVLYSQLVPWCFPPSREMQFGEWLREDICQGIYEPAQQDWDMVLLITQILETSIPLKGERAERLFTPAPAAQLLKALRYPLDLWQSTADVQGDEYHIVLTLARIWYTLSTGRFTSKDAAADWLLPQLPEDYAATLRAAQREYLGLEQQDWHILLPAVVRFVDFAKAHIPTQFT
Experimental: (§1) Binding studies were performed at 25°C using a MicroCal iTC200 instrument (GE Healthcare). Wild-type or mutant AadA at 20–30 µM concentration was dialyzed overnight against 50 mM Tris–HCl pH 7.5, 200 mM NaCl, 5 mM MgCl2, 1 mM tris(2-carboxyethyl)phosphine and titrated with 500–1000 µM ATP, streptomycin (Sigma) or spectinomycin (Sigma) freshly dissolved in the same batch of dialysis buffer prior to each experiment. For titration of streptomycin/spectinomycin in the presence of ATP, a first titration of AadA with ATP to saturation was followed by a second titration with streptomycin/spectinomycin in buffer containing an equivalent concentration of ATP as in the cell. In this way, heats of dilution of ATP were avoided. At least […] consecutive injections of 2 µl were applied at 2 min intervals. The data were analyzed using the MicroCal Analysis plugin in Origin. All ITC data were analyzed assuming one set of binding sites. Each experiment was performed at least twice. For spectinomycin, the concentration used to fit the data was adjusted to the estimated active concentration in binding to AadA, assuming 1:1 binding.

[2] = biological target: T2, AadA R192A (Salmonella typhimurium, UniProt Q8ZPX9, R192A); experiment: ITC binding, AadA R192A; set-up: species or system Salmonella enterica; conditions: for Kd: in the presence of ATP, read-out: K d of substrate ligand (streptomycin / spectinomycin)
T2 construct: made in house; host or cells: Escherichia coli BL21 Star
T2 sequence (Q8ZPX9 1-262 R192A): T1 sequence (Q8ZPX9 1-262) with R192A
Experimental: as §1

[3] = biological target: T3, AadA K205A (Salmonella typhimurium, UniProt Q8ZPX9, K205A); experiment: ITC binding, AadA K205A; set-up: species or system Salmonella enterica; conditions: for Kd: in the presence of ATP, read-out: K d of substrate ligand (streptomycin / spectinomycin)
T3 construct: made in house; host or cells: Escherichia coli BL21 Star
T3 sequence (Q8ZPX9 1-262 K205A): T1 sequence (Q8ZPX9 1-262) with K205A
Experimental: as §1

[4] = tested on: AadA Glu87 mutants (E87A and E87Q); experiment: ITC binding, Glu87 mutants of AadA stated together; set-up: species or system Salmonella enterica
Experimental: as §1

[5] = biological target: T4, AadA W112F (Salmonella typhimurium, UniProt Q8ZPX9, W112F); experiment: ITC binding, AadA W112F; set-up: species or system Salmonella enterica; conditions: 25°C, in the presence of ATP, read-out: K d of substrate ligand (streptomycin / spectinomycin)
T4 construct: made in house; host or cells: Escherichia coli BL21 Star
T4 sequence (Q8ZPX9 1-262 W112F): T1 sequence (Q8ZPX9 1-262) with W112F
Experimental: as §1

[6] = biological target: T5, AadA E87A (Salmonella typhimurium, UniProt Q8ZPX9, E87A); experiment: ITC binding, AadA E87A; set-up: species or system Salmonella enterica; conditions: 25°C, in the presence of ATP, nb = no binding detected
T5 construct: made in house; host or cells: Escherichia coli BL21 Star
T5 sequence (Q8ZPX9 1-262 E87A): T1 sequence (Q8ZPX9 1-262) with E87A
Experimental: as §1

[7] = tested on: bacterial growth; set-up: method as in vendor (Sigma); conditions: as sold; as estimated from a bacterial growth assay; ref vendor (Sigma); cited from earlier work
[8] = biological target: T6, AadA D182N (Salmonella typhimurium, UniProt Q8ZPX9, D182N); experiment: ITC binding, AadA D182N; set-up: species or system Salmonella enterica; conditions: 25°C, in the presence of ATP, read-out: K d of substrate ligand (streptomycin / spectinomycin)
T6 construct: made in house; host or cells: Escherichia coli BL21 Star
T6 sequence (Q8ZPX9 1-262 D182N): T1 sequence (Q8ZPX9 1-262) with D182N
Experimental: as §1

[9] = biological target: T7, AadA E87Q (Salmonella typhimurium, UniProt Q8ZPX9, E87Q); experiment: ITC binding, AadA E87Q; set-up: species or system Salmonella enterica; conditions: 25°C, in the presence of ATP, nb = no binding detected
T7 construct: made in house; host or cells: Escherichia coli BL21 Star
T7 sequence (Q8ZPX9 1-262 E87Q): T1 sequence (Q8ZPX9 1-262) with E87Q
Experimental: as §1

[10] = ITC, 25°C, 5 mM MgCl2, nb = no binding detected
[11] = 25°C, in the presence of ATP, wild type AadA, read-out: K d of substrate ligand (streptomycin / spectinomycin)

Question: Which “binding to wild-type AadA (ITC)” value ([1]; nucleotide titrated alone) does the source give for `Nc1ncnc2c1ncn2[C@@H]1O[C@H](COP(=O)(O)CP(=O)(O)OP(=O)(O)O)[C@@H](O)[C@H]1O` [AMPCPP] here?
Answer: did not show any detectable binding

Question: For `Nc1ncnc2c1ncn2[C@@H]1O[C@H](COP(=O)(O)OP(=O)(O)OP(=O)(O)O)[C@@H](O)[C@H]1O` [ATP], which Kd ([1]; wild-type AadA, read-out: K d of ATP) is on record?
Answer: 13000 nM

Question: And the “ATP binding (ITC)” value [2]?
Answer: no ATP binding could be detected

Question: And the “K d(ATP)” value [2, 10]?
Answer: nb

Question: What about the “ATP binding (ITC)” value [3] of the same compound?
Answer: no ATP binding could be detected

Question: And the “K d(ATP)” value [3, 10]?
Answer: nb

Question: What about the “lower affinity for ATP compared with the wild type” value ([4]; E87Q and E87A vs wild type, ITC) of the same compound?
Answer: threefold to fourfold lower affinity

Question: With `CN[C@@H]1[C@H](O)[C@H](NC)[C@H]2O[C@@]3(O)C(=O)C[C@@H](C)O[C@H]3O[C@@H]2[C@H]1O` [Spectinomycin, spectinomycin] as the compound, how does the Kd [5] read?
Answer: 600 nM

Question: And the Kd [1, 11]?
Answer: 500 nM

Question: What about the “binding to AadA in the absence of ATP (ITC)” value [1] of the same compound?
Answer: did not display detectable binding

Question: What about the “activity in binding to AadA, of the assumed active concentration” value ([1]; from fit of the ITC data assuming 1:1 binding) of the same compound?
Answer: 31%

Question: And the Kd ([2]; ITC, 25°C)?
Answer: > 30000 nM

Question: And the Kd ([3]; ITC, 25°C)?
Answer: > 10000 nM

Question: And the “K d of substrate ligand (streptomycin / spectinomycin)” value [6]?
Answer: nb

Question: And the “binding of spectinomycin (ITC)” value ([4]; Glu87 mutants)?
Answer: no measurable binding

Question: And the potency [7]?
Answer: 603 µg/mg

Question: And the Kd [8]?
Answer: > 30000 nM

Question: What about the “K d of substrate ligand (streptomycin / spectinomycin)” value [9] of the same compound?
Answer: nb

Question: With `[H]/N=C(/N)N[C@H]1[C@H](O)[C@@H](O)[C@H](O[C@@H]2O[C@@H](C)[C@](O)(C=O)[C@H]2O[C@@H]2O[C@@H](CO)[C@H](O)[C@@H](O)[C@@H]2NC)[C@@H](N/C(N)=N\[H])[C@@H]1O` [Streptomycin, streptomycin] as the compound, how does the Kd [5] read?
Answer: 800 nM

Question: What about the Kd [1, 11] of the same compound?
Answer: 500 nM

Question: What about the “binding to AadA in the absence of ATP (ITC)” value [1] of the same compound?
Answer: did not display detectable binding

Question: What about the Kd ([2]; ITC, 25°C) of the same compound?
Answer: > 100000 nM

Question: What about the Kd ([3]; ITC, 25°C) of the same compound?
Answer: 1300 nM

Question: And the “lowered affinity for streptomycin” value ([4]; Glu87 mutants vs wild type, ITC)?
Answer: 20–40 fold

Question: And the Kd [8]?
Answer: 700 nM
